Muscle mass loss data for 1 substance are collected here from patent US10835506B2, “Treatment and prevention of muscle loss using L-ornithine in combination with at least one of phenylacetate and phenylbutyrate” (OCERA THERAPEUTICS, INC., priority 2015, dated 2020).

The test system of this assay is Fisher 344×Brown Norway (FBN) rat. Nature of the assay: Treatment of sarcopenia (age-related muscle loss) in FBN hybrid rats. Type of assay: in vivo. Particulars: middle age and/or old FBN hybrid rats; OP administered e.g. orally. As to the method:
The Fisher 344×Brown Norway (FBN) rat model has been recommended by the National Institute on Aging (NIA) for age-related research. […] Significant muscle mass loss, a reduction in muscle CSA, and muscle fiber loss are expected in, for example, the quadriceps muscles of the aged rat.
OP is administered, for example orally, to young, middle age, and old FBN hybrid rats.

With L-ornithine phenylacetate [OP], the muscle mass loss entry was “effective in reducing muscle mass loss”.
